Among the data in PubChem BioAssay AID434987 (Southern Research Specialized Biocontainment Screening …, 2010) are IC50 and IC90 values, retold here.

The subject of this experiment is M. tuberculosis H37Rv growth inhibition with meropenem. Kind of experiment: dose response, H37Rv, with and without meropenem (AID 434987).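 Also: growth over 7 days at 37 °C before Alamar Blue read on day 9.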
Setting [1] is: M. tuberculosis H37Rv growth inhibition, measured here: IC50 without meropenem.
Setting [2] is: M. tuberculosis H37Rv growth inhibition, measured here: IC90 without meropenem.
[3] abbreviates: measured here: IC90 with meropenem.

Broadly, the IC50 is the point on the concentration scale where inhibition reaches its midpoint. By IC90 is commonly meant the concentration needed for an effect of 90%. A low value points to an effect from little substance.

Active and inactive are the calls of the source. No rule for the calls is given here.

On to `Cc1ccc(C2=NN3C(=O)c4ccccc4C3C2)cc1` (stereo not drawn), for which the concentration for half-maximal inhibition (IC50) is 11.1 µM. The compound further gave an IC50 under setting [1] of 49 µM. In addition, the IC90 under setting [2] was > 100 µM. This compound displayed a 90% effect concentration (IC90) under setting [3] of 35.1 µM.

Take `CCSc1nnc(NC(=O)C2Cc3ccccc3CN2C(=O)c2ccco2)s1` (stereo not drawn): the IC50 is 2.69 µM. Besides, under setting [1], the 50% inhibitory concentration (IC50) was > 100 µM. For the same compound, the 90% effect concentration (IC90) under setting [2] is > 100 µM. In addition, under setting [3], the IC90 was > 100 µM.

Turning to `O=C(CCN1CCOCC1)c1ccc(N2CCCCC2)cc1`, the IC50 was 14 µM (inactive). The 50% inhibitory concentration (IC50) under setting [1] was determined as 27.5 µM. Moreover, the 90% effect concentration (IC90) under setting [2] is 37.3 µM. The compound further had a concentration for an effect of 90% (IC90) under setting [3] of 72.7 µM.

For the compound `N#Cc1c(C(F)(F)F)cc(-c2ccccc2)nc1SCc1nc(N)nc(N2CCOCC2)n1`, the IC50 was > 100 µM (inactive). For the same compound, the IC50 under setting [1] was > 100 µM. The 90% effect concentration (IC90) under setting [2] was > 100 µM. Moreover, under setting [3], the IC90 was > 100 µM.

For `CCCC1=C/C(=C/c2ccc(-c3ccccc3OC)o2)C(=O)O1`, the IC50 is 29.3 µM (inactive). This compound yielded an IC50 under setting [1] of 55.5 µM. In addition, the IC90 under setting [2] was > 100 µM. In addition, the IC90 under setting [3] was > 100 µM.

For the compound `O=C(Cc1ccccc1Cl)Nc1nc2ccccc2[nH]1`, the IC50 was 9.31 µM. Further, the IC50 under setting [1] was > 100 µM. For the same compound, the concentration for an effect of 90% (IC90) under setting [2] is > 100 µM. Under setting [3], the IC90 is > 25 µM.

Consider `COc1ccc(C[C@H](C)NC[C@@H](O)c2ccc(O)c(NC=O)c2)cc1`, for which the IC50 is > 100 µM (inactive). Also, the IC50 under setting [1] is > 100 µM. Also, the concentration for an effect of 90% (IC90) under setting [2] is > 100 µM. In addition, the IC90 under setting [3] was > 100 µM.

`Cc1ccc2nc(-c3ccc(NC(=S)NC(=O)C(C)C)cc3)sc2c1`: the IC50 is > 100 µM (inactive). Moreover, the half-maximal inhibitory concentration (IC50) under setting [1] was > 100 µM. Moreover, the 90% effect concentration (IC90) under setting [2] is > 100 µM. Moreover, the 90% effect concentration (IC90) under setting [3] is > 100 µM.

As for `Cc1cc2c(N=NC(=O)C3CC3c3ccccc3)c(O)[nH]c2cc1Br` (stereo not drawn), the IC50 was > 100 µM (inactive). Further, the 50% inhibitory concentration (IC50) under setting [1] is > 100 µM. Under setting [2], the IC90 was > 100 µM. Moreover, the IC90 under setting [3] is > 100 µM.

As to `CCN(CC)c1ccc(N=Cc2c(O)n(-c3ccc(Cl)cc3)c(=O)[nH]c2=O)cc1`, the 50% inhibitory concentration (IC50) was 20.9 µM. Under setting [1], the concentration for half-maximal inhibition (IC50) was > 100 µM. Also, the IC90 under setting [2] is > 100 µM. In addition, the 90% effect concentration (IC90) under setting [3] was > 100 µM.

Consider `CCOC(=O)NC1c2ccccc2Oc2ccccc21`, for which the concentration for half-maximal inhibition (IC50) was 37.6 µM. Besides, under setting [1], the half-inhibitory concentration (IC50) was > 100 µM. Besides, the 90% effect concentration (IC90) under setting [2] was > 100 µM. In addition, under setting [3], the IC90 is > 50 µM.

Turning to `CCn1c(O)c(/C=N/NC(=O)c2ccccc2)c(=O)n(CC)c1=S`, the half-maximal inhibitory concentration (IC50) is 16.2 µM. Besides, the half-inhibitory concentration (IC50) under setting [1] was > 100 µM. Under setting [2], the concentration for an effect of 90% (IC90) is > 100 µM. The IC90 under setting [3] was > 100 µM.

For the compound `CCOC(=O)C1CSC(CC(=O)Nc2ccc(Cl)c(Cl)c2)C(=O)N1` (stereo not drawn), the concentration for half-maximal inhibition (IC50) is 10.8 µM. Moreover, the IC50 under setting [1] is 47.7 µM. In addition, under setting [2], the IC90 came out at 54.3 µM. Besides, the IC90 under setting [3] stood at 35.4 µM.

In the case of `CSc1ccc(/C=C/C(=O)Nc2ccccc2)cc1`, the IC50 is > 100 µM (inactive). Also, under setting [1], the half-inhibitory concentration (IC50) is > 100 µM. Moreover, the IC90 under setting [2] was > 100 µM. Also, the IC90 under setting [3] is > 100 µM.

For the compound `Cn1c(O)c(/C=C2/C=CC=N2)c(=O)[nH]c1=O`, the IC50 is 18.3 µM. Besides, under setting [1], the concentration for half-maximal inhibition (IC50) is > 100 µM. Also, the IC90 under setting [2] is > 100 µM. Under setting [3], the IC90 was > 100 µM.

With `CCOC(=O)c1ccccc1NC(=O)C1COc2ccccc2O1` (stereo not drawn), the concentration for half-maximal inhibition (IC50) was 12.1 µM. Further, under setting [1], the half-maximal inhibitory concentration (IC50) was 36.2 µM. Also, the IC90 under setting [2] was > 100 µM. Under setting [3], the 90% effect concentration (IC90) is > 100 µM.

Take `COc1ccc(-c2c(-c3ccsc3)oc3ccc(N4CCOCC4)cc23)cc1`: the IC50 was > 100 µM (inactive). The IC50 under setting [1] is > 100 µM. Besides, under setting [2], the IC90 is > 100 µM. Also, under setting [3], the IC90 is > 100 µM.

On to `CC1(C)Cc2c(C#N)c(SCc3ccccc3)nc(N3CCOCC3)c2CO1`, for which the IC50 was > 100 µM (inactive). Besides, the IC50 under setting [1] was > 100 µM. Further, the concentration for an effect of 90% (IC90) under setting [2] was > 100 µM. Further, under setting [3], the IC90 is > 100 µM.

Turning to `N#Cc1cc2c(nc1SCC(=O)Nc1sc3c(c1C#N)CCC3)CCCC2`, the IC50 is > 100 µM (inactive). The IC50 under setting [1] is > 100 µM. Moreover, the concentration for an effect of 90% (IC90) under setting [2] is > 100 µM. The 90% effect concentration (IC90) under setting [3] was > 100 µM.

`COc1ccc2[nH]cc(C(=O)CCl)c2c1`: the half-inhibitory concentration (IC50) was 2.68 µM. The compound also displayed an IC50 under setting [1] of 9.54 µM. Also, the 90% effect concentration (IC90) under setting [2] was determined as 31 µM. Besides, the IC90 under setting [3] was > 100 µM.

With `CC(=O)OCC(=O)Nc1ccc(C(C)=O)cc1`, the IC50 is 89.2 µM (inactive). Further, the half-maximal inhibitory concentration (IC50) under setting [1] was 95.5 µM. Besides, under setting [2], the 90% effect concentration (IC90) was > 100 µM. Besides, the IC90 under setting [3] is > 100 µM.

Consider `COc1cccc(/C=C/c2[nH]c(=O)[nH]c(=O)c2[N+](=O)[O-])c1O`, for which the half-maximal inhibitory concentration (IC50) is 9.24 µM. The compound further showed a concentration for half-maximal inhibition (IC50) under setting [1] of 24.2 µM. Also, the 90% effect concentration (IC90) under setting [2] stood at 26.6 µM. In addition, the 90% effect concentration (IC90) under setting [3] turned out to be 15.9 µM.
